Where a name gives a salt, the structure may show the parent alone.

Usually IC50 stands for the concentration at which inhibition is half-maximal.

human PKR1 receptors, sequence (Q8TCW9 whole entry): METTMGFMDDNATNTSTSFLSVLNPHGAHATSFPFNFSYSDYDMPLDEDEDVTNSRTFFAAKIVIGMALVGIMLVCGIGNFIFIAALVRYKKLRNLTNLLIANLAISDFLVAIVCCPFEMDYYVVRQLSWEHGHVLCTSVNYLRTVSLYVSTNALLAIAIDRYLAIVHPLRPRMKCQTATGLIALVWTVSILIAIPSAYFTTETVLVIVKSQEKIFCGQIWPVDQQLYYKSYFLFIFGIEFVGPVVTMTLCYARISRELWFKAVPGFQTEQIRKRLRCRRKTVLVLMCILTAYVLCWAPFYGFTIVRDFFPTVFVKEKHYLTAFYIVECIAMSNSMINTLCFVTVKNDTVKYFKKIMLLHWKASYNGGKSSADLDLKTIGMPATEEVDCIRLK

The assay concerns the target human PKR1 receptors (Homo sapiens (Human), UniProt Q8TCW9). Put plainly: PKR1 antagonist assay: block of PK1-mediated intracellular calcium release (FLIPR Tetra). In kind it is cell-based. The following applies: RBL2H3 cells expressing human PKR1; stimulation with PK1 at EC80; calcium fluorescence. The protocol:
Prokineticin receptor 1 (PKR1) antagonists may be functionally assessed by measurement of change in intracellular calcium levels induced by Gq mediated increase in inositol triphosphate (IP3) levels. The ability of a compound to block the intracellular release of calcium mediated by PK1 in RBL2H3 cells expressing human PKR1 receptors is determined as a measure of the compound's antagonist activity in vitro.
Approximately 10,000 cells per assay well are seeded in normal culture medium in a 384 well plate (Corning). Twenty-four hours after seeding, the cells are loaded with a calcium sensitive fluorescent dye by replacing the culture medium with assay buffer (1× Hanks buffered saline, 25 mM HEPES, 0.1% w/v fatty acid free BSA (bovine serum albumin), pH 7.4) containing 1 mM probenecid and 1× Calcium 5 Reagent (Molecular Devices). Cells are incubated at 37° C. for 1 hour to allow for dye uptake.
To test for antagonist activity, test compounds at a final concentration range between 0.32 nM-10 μM (diluted in assay buffer) are added to the assay wells and allowed to incubate for 10 minutes prior to stimulation with PK1. After incubation with test compounds the assay plate is placed in a FLIPR Tetra (Molecular Devices) and PK1 (diluted in assay buffer) is added at the determined EC80 concentration (final). Ligand-dependent changes in intracellular calcium levels are determined by measuring changes in fluorescence of the dye at […] following excitation at 485 nm.
For orientation: A change in cytosolic calcium serves as a functional read-out for many receptors and channels.
`Cc1ccc(C2CCCN(C(=O)c3ccnc(N4CCCC4)c3)C2)cc1` (stereo not shown) [Example 35, 4-{[3-(4-Methylphenyl)piperidin-1-yl]carbonyl}-2-(pyrrolidin-1-yl)pyridine]: the IC50 turned out to be 8820 nM.
On to `COc1cccc([C@@H]2CCCN(C(=O)c3ccnc(N(C)C)c3)C2)c1` [Example 36, 4-{[(3S)-3-(3-Methoxyphenyl)piperidin-1-yl]carbonyl}-N,N-dimethylpyridin-2-amine], for which the IC50 amounted to 5510 nM.
With `CCN(C)c1cc(C(=O)N2CCCC(c3ccc(C)cc3)C2)ccn1` (stereo not shown) [Example 37, N-Ethyl-N-methyl-4-{[3-(4-methylphenyl)piperidin-1-yl]carbonyl}pyridin-2-amine] the figure was 5530 nM.
As to `Cc1ccc(C2CCCN(C(=O)c3ccnc(N4CC(F)(F)C4)c3)C2)cc1` (stereo not shown) [Example 38, 2-(3,3-Difluoroazetidin-1-yl)-4-{[3-(4-methylphenyl)piperidin-1-yl]carbonyl}pyridine], the IC50 came to 6500 nM.
Consider `CCCN(C)c1cc(C(=O)N2CCCC(c3ccc(C)cc3)C2)ccn1` (stereo not shown) [Example 39, N-Methyl-4-{[3-(4-methylphenyl)piperidin-1-yl]carbonyl}-N-propylpyridin-2-amine], for which the IC50 turned out to be 8220 nM.
Regarding `Cc1ccc(C2CCCN(C(=O)c3ccnc(N(C)C(C)C)c3)C2)cc1` (stereo not shown) [Example 40, N-Methyl-4-{[3-(4-methylphenyl)piperidin-1-yl]carbonyl}-N-(propan-2-yl)pyridin-2-amine], the IC50 was found to be 7030 nM.
Regarding `Cc1ccc(C2CCCN(C(=O)c3ccnc(N4CC(O)C4)c3)C2)cc1` (stereo not shown) [Example 41, 1-(4-{[3-(4-Methylphenyl)piperidin-1-yl]carbonyl}pyridin-2-yl)azetidin-3-ol], the IC50 came to 8460 nM.
With `CCOc1cc(C(=O)N2CCCC(c3ccc(Cl)cc3)C2)ccn1` (stereo not shown) [Example 42, 4-{[3-(4-Chlorophenyl)piperidin-1-yl]carbonyl}-2-ethoxypyridine] the figure was 8350 nM; with `Cc1ccc(C2CCCN(C(=O)c3ccnc(N(C)C4CC4)c3)C2)cc1` (stereo not shown) [Example 43, N-Cyclopropyl-N-methyl-4-{[3-(4-methylphenyl)piperidin-1-yl]carbonyl}pyridin-2-amine], 7050 nM; with `CN(C)c1cc(C(=O)N2CCCC(c3ccc(C(F)(F)F)cc3)C2)ccn1` (stereo not shown) [Example 44, N,N-Dimethyl-4-({3-[4-(trifluoromethyl)phenyl]piperidin-1-yl}carbonyl)pyridin-2-amine formate], 4400 nM.
For `CN(C)c1cc(C(=O)N2CCCC(c3ccccc3C(F)(F)F)C2)ccn1` (stereo not shown) [Example 45, N,N-Dimethyl-4-({3-[2-(trifluoromethyl)phenyl]piperidin-1-yl}carbonyl)pyridin-2-amine], the IC50 was 220 nM.
As for `CN(C)c1cc(C(=O)N2CCCC(c3ccccc3Cl)C2)ccn1` (stereo not shown) [Example 46, 4-{[3-(2-Chlorophenyl)piperidin-1-yl]carbonyl}-N,N-dimethylpyridin-2-amine], the IC50 amounted to 7790 nM.
Next, `COc1ccc(C2CCCN(C(=O)c3ccnc(N(C)C)c3)C2)cc1` (stereo not shown) [Example 47, 4-{[3-(4-Methoxyphenyl)piperidin-1-yl]carbonyl}-N,N-dimethylpyridin-2-amine]: 460 nM.
For the compound `COc1ccccc1C1CCCN(C(=O)c2ccnc(N(C)C)c2)C1` (stereo not shown) [Example 48, 4-{[3-(2-Methoxyphenyl)piperidin-1-yl]carbonyl}-N,N-dimethylpyridin-2-amine], the IC50 turned out to be 410 nM.
With `Cc1ccc(C2CCCN(C(=O)c3ccnc(N(C)C)c3)C2)cc1` (stereo not shown) [Example 49, N,N-Dimethyl-4-{[3-(4-methylphenyl)piperidin-1-yl]carbonyl}pyridin-2-amine] the figure was 420 nM.
With `CCc1cc(C(=O)N2CCCC(c3ccc(Cl)cc3)C2)ccn1` (stereo not shown) [Example 52, 4-{[3-(4-Chlorophenyl)piperidin-1-yl]carbonyl}-2-ethylpyridine] the figure was 510 nM; with `CNc1cc(C(=O)N2CCCC(c3ccc(C(F)(F)F)cc3)C2)ccn1` (stereo not shown) [Example 53, N-Methyl-4-({3-[4-(trifluoromethyl)phenyl]piperidin-1-yl}carbonyl)pyridin-2-amine], 2920 nM.
Take `CNc1cc(C(=O)N2CCCC(c3ccccc3C(F)(F)F)C2)ccn1` (stereo not shown) [Example 54, N-Methyl-4-({3-[2-(trifluoromethyl)phenyl]piperidin-1-yl}carbonyl)pyridin-2-amine]: the half-inhibitory concentration (IC50) stood at 230 nM.
In the case of `CNc1cc(C(=O)N2CCCC(c3ccc(OC)cc3)C2)ccn1` (stereo not shown) [Example 55, 4-{[3-(4-Methoxyphenyl)piperidin-1-yl]carbonyl}-N-methylpyridin-2-amine hemi formate], the IC50 came to 350 nM.
For the compound `CNc1cc(C(=O)N2CCCC(c3ccccc3OC)C2)ccn1` (stereo not shown) [Example 56, 4-{[3-(2-Methoxyphenyl)piperidin-1-yl]carbonyl}-N-methylpyridin-2-amine], the IC50 came to 440 nM.
On to `CNc1cc(C(=O)N2CCCC(c3ccc(Cl)cc3C(F)(F)F)C2)ccn1` (stereo not shown) [Example 57, 4-({3-[4-Chloro-2-(trifluoromethyl)phenyl]piperidin-1-yl}carbonyl)-N-methylpyridin-2-amine], for which the IC50 was 50 nM.
Regarding `CCc1cc(C(=O)N2CCCC(c3ccccc3C(F)(F)F)C2)ccn1` (stereo not shown) [Example 58, 2-Ethyl-4-({3-[2-(trifluoromethyl)phenyl]piperidin-1-yl}carbonyl)pyridine], the IC50 was 820 nM.
As for `CCc1cc(C(=O)N2CCCC(c3ccccc3OC)C2)ccn1` (stereo not shown) [Example 59, 2-Ethyl-4-{[3-(2-methoxyphenyl)piperidin-1-yl]carbonyl}pyridine], the IC50 worked out at 1600 nM.
`CN(C)c1cc(C(=O)N2CCCC(c3ccccc3OC(F)(F)F)C2)ccn1` (stereo not shown) [Example 60, N,N-Dimethyl-4-({3-[2-(trifluoromethoxy)phenyl]piperidin-1-yl}carbonyl)pyridin-2-amine]: the IC50 was 1600 nM.
With `CCOc1cc(Cl)ccc1C1CCCN(C(=O)c2ccnc(N(C)C)c2)C1` (stereo not shown) [Example 61, 4-{[3-(4-Chloro-2-ethoxyphenyl)piperidin-1-yl]carbonyl}-N,N-dimethylpyridin-2-amine] the figure was 100 nM.
Next, `COc1ccc(C2CCCN(C(=O)c3ccnc(N(C)C)c3)C2)c(C(F)(F)F)c1` (stereo not shown) [Example 62, 4-({3-[4-Methoxy-2-(trifluoromethyl)phenyl]piperidin-1-yl}carbonyl)-N,N-dimethylpyridin-2-amine]: 100 nM; `CNc1cc(C(=O)N2CCCC(c3ccc(OC)cc3C)C2)ccn1` (stereo not shown) [Example 63, 4-{[3-(4-Methoxy-2-methylphenyl)piperidin-1-yl]carbonyl}-N-methylpyridin-2-amine]: 40 nM; `CNc1cc(C(=O)N2CCCC(c3ccc(OC)cc3C(F)(F)F)C2)ccn1` (stereo not shown) [Example 64, 4-({3-[4-Methoxy-2-(trifluoromethyl)phenyl]piperidin-1-yl}carbonyl)-N-methylpyridin-2-amine formate]: 50 nM.
As to `CCOc1cc(Cl)ccc1C1CCCN(C(=O)c2ccnc(NC)c2)C1` (stereo not shown) [Example 65, 4-{[3-(4-Chloro-2-ethoxyphenyl)piperidin-1-yl]carbonyl}-N-methylpyridin-2-amine], the IC50 is 70 nM.
With `CN(C)c1cc(C(=O)N2CCCC(c3ccccc3OC(F)F)C2)ccn1` (stereo not shown) [Example 66, 4-({3-[2-(Difluoromethoxy)phenyl]piperidin-1-yl}carbonyl)-N,N-dimethylpyridin-2-amine] the figure was 700 nM.
In the case of `CN(C)c1cc(C(=O)N2CCCC(c3ccccc3C#N)C2)ccn1` (stereo not shown) [Example 67, 2-(1-{[2-(Dimethylamino)pyridin-4-yl]carbonyl}piperidin-3-yl)benzonitrile], the IC50 is 2260 nM.
In the case of `Cc1cc(Cl)cc(C)c1C1CCCN(C(=O)c2ccnc(N(C)C)c2)C1` (stereo not shown) [Example 68, 4-{[3-(4-Chloro-2,6-dimethylphenyl)piperidin-1-yl]carbonyl}-N,N-dimethylpyridin-2-amine], the IC50 was 1540 nM.
In the case of `CN(C)c1cc(C(=O)N2CCCC(c3ccc(Cl)cc3)C2)cnn1` (stereo not shown) [Example 69, 5-{[3-(4-Chlorophenyl)piperidin-1-yl]carbonyl}-N,N-dimethylpyridazin-3-amine], the IC50 is 810 nM.
On to `CNc1cc(C(=O)N2CCCC(c3ccc(Cl)cc3C)C2)cnn1` (stereo not shown) [Example 71, 5-{[3-(4-Chloro-2-methylphenyl)piperidin-1-yl]carbonyl}-N-methylpyridazin-3-amine], for which the IC50 was 70 nM.
With `CNc1cc(C(=O)N2CCC[C@H](c3ccc(Cl)cc3C)C2)cnn1` [Example 72, 5-{[(3R)-3-(4-Chloro-2-methylphenyl)piperidin-1-yl]carbonyl}-N-methylpyridazin-3-amine] the figure was 30 nM.
Next, `COc1cc(C(=O)N2CCCC(c3ccc(Cl)cc3C)C2)cnn1` (stereo not shown) [Example 74, 5-{[3-(4-Chloro-2-methylphenyl)piperidin-1-yl]carbonyl}-3-methoxypyridazine]: 350 nM.
`CN(C)c1cc(C(=O)N2CCCC(c3ccc(Cl)cc3C(F)(F)F)C2)cnn1` (stereo not shown) [Example 75, 5-({3-[4-Chloro-2-(trifluoromethyl)phenyl]piperidin-1-yl}carbonyl)-N,N-dimethylpyridazin-3-amine]: the IC50 amounted to 110 nM.

For the origin of these results see patent publication US9790201B2, “Piperidine and azepine derivatives as prokineticin receptor modulators” (TAKEDA PHARMACEUTICAL COMPANY LIMITED, priority 2013, dated 2017).
